# Reference: a melting point compilation (Tetko et al.; mined from patent text by program, amines drawn as free bases though some values may be those of a salt)
row,Compound,melting point
1,O=C1c2c(-c3ccc(Cl)cc3)noc2CCC1CCCN1CCN(C(c2ccc(F)cc2)c2ccc(F)cc2)CC1 (stereo not given),150 to 152 °C
2,CS(=O)(=O)c1ccc(C(CC2CCCC2)C(=O)Nc2nccs2)cc1Br (stereo not given),106 to 107 °C
3,CC(C)(C)C(=O)Nc1cccc(-c2ccnc3c(C(=O)c4ccco4)cnn23)c1,203 to 204 °C
4,CCOP(=O)(CN(Cc1ccncc1)C(=O)Cc1cc(C(C)(C)C)c(O)c(C(C)(C)C)c1)OCC,160 to 162 °C
5,CCC1Nc2cc(C)cc(C)c2N1c1ccc(CCNC(=O)NS(=O)(=O)c2ccc(C)cc2)cc1 (stereo not given),108 to 112 °C
6,Cc1ccc(S(=O)(=O)NCCCCOc2ccc(-n3cnnn3)cc2)cc1,127 to 128 °C
7,COC1CCCCC1n1nnc2c([N+](=O)[O-])cccc21 (stereo not given),134 to 136 °C
8,c1cc(C2CCCCC2)ccc1N=C1NCCCN1,179 to 181 °C
9,CC(C)(C)OC(=O)Nc1ccc([N+](=O)[O-])cc1,112 to 114 °C
10,CCN1C(=O)N(c2cc(OC)cc(OC)c2)Cc2cnc(S(C)=O)nc21 (stereo not given),167 to 169 °C
11,CC(=O)NCc1nc(-c2csc(N=C(N)N)n2)cs1,255 to 256 °C
12,CC1=C(C(=O)OCCCN(C)Cc2ccccc2)C(c2ccccc2C(F)(F)F)c2c(ccnc2OC(C)C)N1 (stereo not given),143 to 144 °C
13,O=c1[nH]c(NCCCN(Cc2ccccc2)c2ccccn2)ncc1Cc1ccncc1,87 to 89 °C
14,CCOc1ccc(C=[N+]([O-])C2CCCCC2)cc1,124 °C
15,CC(=O)N1CCCC2(Cc3ccc(Br)cc3)C(=O)N(c3cc(Cl)nc(Cl)c3)C(=O)N12 (stereo not given),91 °C
16,CCCCOc1ccc(S(=O)(=O)NC(=O)c2ccc(C(=O)OC)nc2)cc1,174 to 176 °C
17,CC(C)C(NC(=O)OCCN1CCOCC1)C(=O)NC(Cc1ccccc1)C(O)C(Cc1ccccc1)NC(=O)C(NC(=O)OCCN1CCOCC1)C(C)C (stereo not given),122 to 123 °C
18,CN(C)C=Nn1cc(-c2ccc([N+](=O)[O-])o2)nn1,239 to 241 °C
19,CC1(C)CC(C)(C)c2cc(Cl)c(O)cc21,52 °C

row,Compound,melting point
1,COC(=O)C=Cc1ccc(N2CCN(CCC3CCN(C(=O)OC(C)(C)C)CC3)C2=O)cc1,148 to 149 °C
2,CNS(=O)(=O)c1ccc(Nc2cc(N3CCCC3)cc(-c3ccc(OC(F)(F)F)cc3)n2)cc1,83 to 85 °C
3,COc1c(Cl)ccc(-c2nc(Cl)c3c(ncn3C)n2)c1F,184 to 186 °C
4,COc1cc(Nc2nccc(Nc3ccc(O)cc3)n2)cc(OC)c1OC,112 to 115 °C
5,CNC(=C[N+](=O)[O-])NCCSCc1[nH]cnc1C,141 to 143 °C
6,OC(COc1ccccc1-c1nc2ccccc2s1)CN1CCN(C(c2ccccc2)c2ccccc2)CC1 (stereo not given),152 to 155 °C
7,CC(C)(C)CC(=O)N1CCC(c2ccc(COc3ccc(S(C)(=O)=O)cc3)nc2)CC1,140 to 142 °C
8,COc1cc(C(=O)N(C(C)C)C(C)C)ccc1OCCCCCOc1ccc(C#N)cc1,90 to 92 °C
9,OCc1ccc(-c2ccc(OC(F)(F)F)c(F)c2)cn1,51 to 53 °C
10,CCc1nc(/C=C/c2cn(-c3ccccc3)nc2OCc2ccc(OCc3nc(-c4ccc(C(=O)O)o4)oc3C)c(OC)c2)cs1,154 to 155 °C
11,C=C1N(c2cccc3ccccc23)C(=O)OC12CCN(CCC=C(c1ccc(F)cc1)c1ccc(F)cc1)CC2,99 to 101 °C
12,Cc1coc2c1C(=O)CC(c1ccc(F)cc1F)C2 (stereo not given),101 to 102 °C
13,NC(Cc1ccc2c(c1)CCC2)=NO,60 °C
14,COc1ccc(N(c2ccc(OC)cc2)c2ccc(-c3ccc(N(c4ccc(OC)cc4)c4ccc5ccc6cccc7ccc4c5c67)cc3)cc2)cc1,211 to 213 °C
15,Cc1c(C)c2c(c(C)c1NC(=O)CC(C)(C)C)C(O)C(C)(C)O2 (stereo not given),204 to 206 °C
16,O=c1[nH]c(C2CC2)nc2c1cnn2-c1ncc(C(F)(F)F)cc1Cl,239 °C
17,CN(C)S(=O)(=O)c1ccc2c(c1)S(=O)(=O)NC1CCCN21 (stereo not given),240 to 243 °C
18,Cc1cc(N2C(=O)NC(C)(C)C2=O)ccc1[N+](=O)[O-],177 to 178 °C
19,COC(=O)C1(C)Cc2c(OC)ccc(OC)c2CO1 (stereo not given),73 to 74.5 °C

row,Compound,melting point
1,CCCCCCCCC=CCCCCCCCC(=O)Cl,73 to 74 °C
2,CCOC(=O)c1cnc([N+](=O)[O-])n1C,65 to 66 °C
3,NC(=S)Nc1ccc(Cl)c(Cl)c1Cl,115 to 117 °C
4,CC[C@@H](Nc1nc(NCc2ccccc2)c2ncn(C(C)C)c2n1)[C@H](C)O,42 to 44 °C
5,Fc1cc(F)c2c(c1)CCC(n1cc[nH]c1=S)C2 (stereo not given),260 to 261 °C
6,CSC(=S)NCCCN1CCN(c2ccccc2)CC1,75 to 79 °C
7,COc1cc(OC)c2cc(-c3ccc(F)cc3)oc2c1,142 to 143 °C
8,COc1ccccc1-c1[nH]c2cccc3c2c1CCNC3=O,254 to 255 °C
9,Cn1c(NCCCCCC(=O)O)c(NC=O)c(=O)n(C)c1=O,152 to 153 °C
10,Cc1cc2c(s1)Nc1ccccc1N=C2N1CCN[C@@H](COc2ccccc2)C1,64 to 81 °C
11,Cn1nnnc1SCC1=C(C(=O)O)N2C(=O)C(NC(=O)Cn3ccnc3S(C)(=O)=O)C2SC1 (stereo not given),230 °C
12,CCc1cccc(C)c1CNc1nc(C(=O)N(C)C)cc2[nH]c(C)nc12,207 to 208 °C
13,Cc1cc(C(=O)CCCC(=O)c2cc(C)c(O)c(C(C)(C)C)c2)cc(C(C)(C)C)c1O,156 to 158 °C
14,CC(=O)OC1CC2(C)C(=O)CCC2C2CCC3=CC(=O)C=CC3(C)C12F (stereo not given),177 to 178 °C
15,Cn1c(CCSN2CCC3(CC2)CC(=O)c2cc(NS(C)(=O)=O)ccc2O3)cc(=O)n(C)c1=O,198 to 201 °C
16,CCN(CC)C(=O)c1nc2n(n1)-c1ccc(Cl)cc1C(c1ccccc1)=NC2,175 to 177 °C
17,Cc1cc(Cc2cnc(NCCCCc3ncc(Br)cc3C)[nH]c2=O)cnc1C,126 to 128 °C
18,CCCCSCC(=O)c1ccc2[nH]c(=O)[nH]c2c1,211 to 213 °C
19,CN(Cc1ccc(F)cc1)C1CCN(c2ccc([N+](=O)[O-])cc2)CC1,89 to 90 °C

# Other lines, results leading:
row,melting point,Compound
1,72 to 74 °C,COc1cccc(SCCC(=O)O)c1F
2,194 to 198 °C,O=C(O)c1ccsc1-c1sccc1C(=O)O
3,85 to 87 °C,CCOC(=O)CCc1cc(CCC(=O)O)cc(Oc2cccnc2)c1
4,188 to 192 °C,COC(=O)c1ccccc1S(=O)(=O)NC(=O)Nc1ncccn1
5,297 to 298 °C,O=C(NCCc1ccccc1)c1cc2c(cn1)[nH]c1ccccc12
6,136 to 137 °C,CCS(=O)(=O)N(C)C1c2cc(Cl)cc(Cl)c2OC(C)(C)C1OC(C)=O (stereo not given)
7,109 °C,CC(=O)c1c(C)nc2ccccc2c1NCc1cccc(Br)c1
8,134 to 139 °C,CCOC(=O)C1(Sc2ccccc2)Cc2ccc(N(C)C)cc2NC1=O (stereo not given)
9,172 to 176 °C,CCOC(=O)C1=C(COCC(C)(O)Cn2cnnc2)NC(C)=C(C(=O)OC)C1c1cccc(Cl)c1Cl (stereo not given)
10,58 to 59 °C,CCOC(=O)/C(=C\Nc1ccccc1OC)c1ccc(OC)cc1
11,135 to 136 °C,NC(=O)CNC(=O)c1cccc(-c2cccc3cc(Cc4cccc(C(F)(F)F)c4)sc23)c1F
12,152 °C,COc1ccc2c(c1)C(=C1CCN(Cc3ccccc3)CC1)C(=O)N2
13,177 to 179 °C,O=c1[nH]c2ccccc2cc1CN1CC=C(CCc2ccccc2)CC1
14,79 °C,CC(C(=O)NCC1CCC1)(c1ccccc1)c1ccccc1
15,142 to 145 °C,COc1cccc(NS(=O)(=O)c2ccc(N)cc2)c1
16,59 to 61 °C,CN(C)C(=O)C1=NO[C@@H](c2ccccc2)C1
17,146 to 148 °C,O=C1NC(=O)C(Cc2ccc(O)c(C(=O)NCc3ccc(C(F)(F)F)cc3)c2)S1 (stereo not given)
18,142 to 143 °C,COc1cccc(C(CNC(=O)Cc2c(Cl)cncc2Cl)c2ccccc2)c1 (stereo not given)
19,98 to 99 °C,Clc1ccc(CSCc2ccc(Cl)c(Cl)c2)cc1Cl
20,182 to 183 °C,CC(=O)N(O)Cc1ccc2c(c1)Cc1ccccc1-2
21,120 °C,N#CCc1ccc(Cl)cc1C(=O)O
22,220 °C,CCn1cc(C(=O)O)c(=O)c2cc(F)c(N3CCNC(c4cc[nH]c4)C3)cc21 (stereo not given)

row,melting point,Compound
1,170 to 173 °C,Nc1sc(CCC(=O)O)cc1C(=O)c1ccccc1Cl
2,176 to 179 °C,CCOC(=O)c1cc(=O)cc(-c2ccc(S(C)(=O)=O)cc2)o1
3,100 °C,Cc1cccc(NC(=O)NCC(=O)N(CC(=O)N(C)c2ccc(F)cc2F)c2ccccc2)c1
4,203 to 205 °C,CC(C)c1ccc(C(=O)Cc2c(Cl)cccc2Cl)c(C(C)C)c1OS(N)(=O)=O
5,231 to 233 °C,Clc1ccc2[nH]c(=Nc3ccccc3)n3nc(-c4ccco4)nc3c2c1
6,221 to 223 °C,O=C1C(=O)c2ccccc2C2=C1SCC1(CCSCC1)O2
7,103 to 104 °C,O=Cc1c2ccccc2c(SCCO)c2ccccc12
8,151 to 152 °C,N#Cc1ccc(Cl)cc1NC(=O)c1ccc(Br)cc1
9,55 to 57 °C,CCCCCCCCCCCCn1nnc(C(C(=O)O)c2ccccc2)n1 (stereo not given)
10,165 °C,COC(=O)/C(=C/c1ccc(OCCc2nc(-c3ccccc3)oc2C)c2ccsc12)OC
11,104 to 106 °C,c1ccc(CSc2nc3ncccn3n2)cc1
12,141 to 143 °C,CCOC(=O)COc1cc2c(c(Cl)c1Cl)C(=O)C(CC)=C2
13,75 to 77 °C,COc1cccc(C23CCCC2C(=O)N(Cc2ccccc2)C(=O)C3)c1 (stereo not given)
14,80.5 to 81.5 °C,CCNC(=O)N(C)C(=O)Nc1ccccc1
15,152 °C,Nc1ccc(C(=O)c2ccncc2)cc1
16,146 to 150 °C,CC(=O)OCc1ccc2oc(=O)c(C(=O)Oc3cc(Cl)cc(Cl)c3)cc2c1
17,161 °C,CCOC(=O)Cc1c(Cl)cnc2c(NC(=O)c3c(Cl)cccc3Cl)cccc12
18,236 to 237 °C,COC(=O)c1sc2c(c1N)c1ccccc1c(=O)n2-c1ccccc1C
19,100 to 103 °C,COC(=O)c1cc(C#N)ccc1Cl
20,> 300 °C,O=c1[nH]c2ccc3c(c2n(Cc2ccccc2)c1=O)CCCN3
21,153 to 154 °C,Nc1ccccc1C(=O)NCC1CCN(C(c2ccccc2)c2ccccc2)CC1
